Reference: PubChem BioAssay (NCI)
Values joined by “and” are separate entries in the source; they are usually repeats but may differ in a detail not shown here. Equal values may be shown once.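 Values below derive from 48-hour exposures of cells grown in 96-well plates, with endpoints linearly interpolated between the two concentrations bracketing the appropriate inhibition level. At the GI50, growth is halved. TGI is the concentration that stops growth completely.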

What was measured:
Experiment in all cases: growth of human tumour cells (NCI), 48 h
OVCAR-4 ovarian = tested on: OVCAR-4 ovarian
OVCAR-3 ovarian = tested on: OVCAR-3 ovarian
DU-145 prostate = tested on: DU-145 prostate
SK-MEL-2 melanoma = tested on: SK-MEL-2 melanoma
NCI-H522 lung = tested on: NCI-H522 lung
HCC-2998 colon = tested on: HCC-2998 colon
HOP-92 NSCLC = tested on: HOP-92 NSCLC
RPMI-8226 leukemia = tested on: RPMI-8226 leukemia

CC(C)(C)N/N=C(/Cc1nc2c3c(ccc2[nH]c1=O)C(=O)c1ccccc1C3=O)C(=O)NC1=C(Cl)C(=O)c2ccccc2C1=O
TGI (OVCAR-4 ovarian): 61.6 µM
TGI (OVCAR-3 ovarian): > 100 µM
TGI (DU-145 prostate): > 100 µM
TGI (SK-MEL-2 melanoma): > 100 µM
TGI (NCI-H522 lung): > 100 µM
TGI (HCC-2998 colon): > 100 µM
TGI (HOP-92 NSCLC): > 100 µM
TGI (RPMI-8226 leukemia): > 100 µM

C=C1C(=O)OC2CC(C)C(/C=C/C(C)=O)=CCC12 (configuration not stated)
TGI (OVCAR-4 ovarian): > 100 µM
TGI (OVCAR-3 ovarian): > 100 µM
TGI (DU-145 prostate): > 100 µM
TGI (SK-MEL-2 melanoma): > 100 µM
TGI (NCI-H522 lung): > 100 µM
TGI (HCC-2998 colon): > 100 µM
TGI (HOP-92 NSCLC): > 100 µM
TGI (RPMI-8226 leukemia): > 100 µM

Cc1cc(NC(=O)NCc2ccc(N3C(N)=NC(N)=NC3(C)C)cc2)ccc1S(=O)(=O)F
GI50 (OVCAR-4 ovarian): 9.31 µM
TGI (OVCAR-4 ovarian): > 100 µM
GI50 (OVCAR-3 ovarian): 8.4 µM
TGI (OVCAR-3 ovarian): > 81.9 µM
GI50 (DU-145 prostate): 1.35 µM
TGI (DU-145 prostate): > 100 µM
GI50 (SK-MEL-2 melanoma): 45 µM
TGI (SK-MEL-2 melanoma): > 100 µM
GI50 (NCI-H522 lung): 6.1 µM
TGI (NCI-H522 lung): > 100 µM
GI50 (HCC-2998 colon): 1.96 µM
TGI (HCC-2998 colon): > 100 µM
GI50 (HOP-92 NSCLC): 23.2 µM
TGI (HOP-92 NSCLC): > 100 µM
GI50 (RPMI-8226 leukemia): 4.55 µM
TGI (RPMI-8226 leukemia): > 100 µM

O=c1ccc(N=Nc2ccccc2)ccc1O
TGI (OVCAR-4 ovarian): 69.1 µM
TGI (OVCAR-3 ovarian): 22 µM
TGI (DU-145 prostate): 39.3 µM
TGI (SK-MEL-2 melanoma): 47.5 µM
TGI (NCI-H522 lung): 56.3 µM
TGI (HOP-92 NSCLC): 41.1 µM

Clc1ccc(C=Nc2ccc(-c3nc4ccccc4[nH]3)cc2)cc1
GI50 (OVCAR-4 ovarian): > 100 µM
TGI (OVCAR-4 ovarian): > 100 µM
GI50 (OVCAR-3 ovarian): > 100 µM
TGI (OVCAR-3 ovarian): > 100 µM
GI50 (DU-145 prostate): > 100 µM
TGI (DU-145 prostate): > 100 µM
GI50 (SK-MEL-2 melanoma): > 100 µM
TGI (SK-MEL-2 melanoma): > 100 µM
GI50 (NCI-H522 lung): > 100 µM
TGI (NCI-H522 lung): > 100 µM
GI50 (HCC-2998 colon): > 100 µM
TGI (HCC-2998 colon): > 100 µM
GI50 (HOP-92 NSCLC): 89.1 µM
TGI (HOP-92 NSCLC): > 100 µM
GI50 (RPMI-8226 leukemia): > 100 µM
TGI (RPMI-8226 leukemia): > 100 µM

CCCCCCCCCCCCCCCCCc1nc(Cl)nc(Cl)c1Cl
TGI (OVCAR-4 ovarian): > 100 µM
TGI (OVCAR-3 ovarian): > 100 µM
TGI (DU-145 prostate): > 100 µM
TGI (NCI-H522 lung): > 100 µM
TGI (HCC-2998 colon): > 100 µM
TGI (HOP-92 NSCLC): > 100 µM
TGI (RPMI-8226 leukemia): > 100 µM

CC(=O)c1cc2c(N)c(C(=O)Nc3cccc4ccccc34)sc2nc1C
GI50 (OVCAR-4 ovarian): 6.06 µM
TGI (OVCAR-4 ovarian): > 50 µM
GI50 (OVCAR-3 ovarian): 1.67 µM
TGI (OVCAR-3 ovarian): 11.4 µM
GI50 (DU-145 prostate): 1.71 µM
TGI (DU-145 prostate): 36.1 µM
GI50 (SK-MEL-2 melanoma): 4.22 µM
TGI (SK-MEL-2 melanoma): > 50 µM
GI50 (NCI-H522 lung): 1.2 µM
TGI (NCI-H522 lung): > 50 µM
GI50 (HCC-2998 colon): 2.29 µM
TGI (HCC-2998 colon): > 50 µM
GI50 (HOP-92 NSCLC): 6.78 µM
TGI (HOP-92 NSCLC): > 50 µM
GI50 (RPMI-8226 leukemia): 1.76 µM
TGI (RPMI-8226 leukemia): > 50 µM

COc1cccc(/C=C2\N=C(c3ccccc3)OC2=O)c1
TGI (OVCAR-4 ovarian): > 100 µM
TGI (OVCAR-3 ovarian): > 100 µM
TGI (DU-145 prostate): > 100 µM
TGI (SK-MEL-2 melanoma): > 100 µM
TGI (NCI-H522 lung): 42.5 µM
TGI (HCC-2998 colon): > 100 µM
TGI (HOP-92 NSCLC): > 100 µM
TGI (RPMI-8226 leukemia): 94.1 µM

CCCCCCCCCCCC/C=C\CC[C@@H](O)[C@H](O)CC[C@H](O)[C@@H]1CC[C@@H](CCCCCCCC2=C[C@H](C)OC2=O)O1
TGI (OVCAR-4 ovarian): 26.8 µM
GI50 (OVCAR-3 ovarian): 0.434 µM
TGI (OVCAR-3 ovarian): 6.64 µM and 18.7 µM
GI50 (SK-MEL-2 melanoma): 12.6 µM
TGI (SK-MEL-2 melanoma): 33.4 µM
TGI (NCI-H522 lung): 25.9 µM
TGI (HCC-2998 colon): 37.1 µM
GI50 (HOP-92 NSCLC): 17.4 µM
TGI (HOP-92 NSCLC): 8.69 µM and 55.2 µM
GI50 (RPMI-8226 leukemia): 1.43 µM
TGI (RPMI-8226 leukemia): 3.87 µM

CCn1c(-c2nonc2N)nc2ccccc21
GI50 (OVCAR-4 ovarian): > 25 µM
TGI (OVCAR-4 ovarian): > 25 µM
GI50 (OVCAR-3 ovarian): > 25 µM
TGI (OVCAR-3 ovarian): > 25 µM
GI50 (DU-145 prostate): > 25 µM
TGI (DU-145 prostate): > 25 µM
GI50 (SK-MEL-2 melanoma): > 25 µM
TGI (SK-MEL-2 melanoma): > 25 µM
GI50 (NCI-H522 lung): > 25 µM
TGI (NCI-H522 lung): > 25 µM
GI50 (HCC-2998 colon): > 25 µM
TGI (HCC-2998 colon): > 25 µM
GI50 (HOP-92 NSCLC): 17 µM
TGI (HOP-92 NSCLC): > 25 µM
GI50 (RPMI-8226 leukemia): > 25 µM
TGI (RPMI-8226 leukemia): > 25 µM

Cc1ccc(NCCNCC(C)(C)O)c2c(=O)c3ccc(Cl)cc3sc12
GI50 (OVCAR-3 ovarian): 1.66 µM
TGI (OVCAR-3 ovarian): 3.13 µM
GI50 (DU-145 prostate): 1.67 µM
TGI (DU-145 prostate): 3.08 µM
GI50 (SK-MEL-2 melanoma): 1.59 µM
TGI (SK-MEL-2 melanoma): 3.28 µM
GI50 (NCI-H522 lung): 1.82 µM
TGI (NCI-H522 lung): 3.59 µM
GI50 (HCC-2998 colon): 1.38 µM
TGI (HCC-2998 colon): 2.91 µM
GI50 (HOP-92 NSCLC): 0.455 µM
TGI (HOP-92 NSCLC): 1.92 µM

CCCN1C(=O)/C(=C/c2ccc(SC(F)(F)F)cc2)SC1=Nc1ccc(OC)cc1
GI50 (OVCAR-3 ovarian): 13.5 µM
TGI (OVCAR-3 ovarian): 31.1 µM
GI50 (DU-145 prostate): 21.8 µM
TGI (DU-145 prostate): > 50 µM
GI50 (SK-MEL-2 melanoma): 36.5 µM
TGI (SK-MEL-2 melanoma): > 50 µM
GI50 (HOP-92 NSCLC): 6.6 µM
TGI (HOP-92 NSCLC): 19.8 µM
GI50 (RPMI-8226 leukemia): 11.8 µM
TGI (RPMI-8226 leukemia): > 50 µM

Clc1ccc2c(NCCNc3nc(N4CCOCC4)nc4ccccc34)ccnc2c1
GI50 (OVCAR-4 ovarian): 2.46 µM
TGI (OVCAR-4 ovarian): 6.17 µM
GI50 (OVCAR-3 ovarian): 1.84 µM
TGI (OVCAR-3 ovarian): 3.53 µM
GI50 (DU-145 prostate): 4.99 µM
TGI (DU-145 prostate): 17 µM
GI50 (SK-MEL-2 melanoma): 1.95 µM
TGI (SK-MEL-2 melanoma): 3.72 µM
GI50 (NCI-H522 lung): 2.03 µM
TGI (NCI-H522 lung): 3.8 µM
GI50 (HCC-2998 colon): 2.67 µM
TGI (HCC-2998 colon): 6.54 µM
GI50 (HOP-92 NSCLC): 1.43 µM
TGI (HOP-92 NSCLC): 3.2 µM
GI50 (RPMI-8226 leukemia): 1.72 µM
TGI (RPMI-8226 leukemia): 5.17 µM

CC1(C)N=C(N)N=C(N)N1c1ccc(CCCC(=O)Nc2ccc(S(=O)(=O)F)cc2)cc1
GI50 (OVCAR-4 ovarian): > 62.3 µM
TGI (OVCAR-4 ovarian): > 100 µM
GI50 (OVCAR-3 ovarian): 33.6 µM
TGI (OVCAR-3 ovarian): > 100 µM
GI50 (DU-145 prostate): 6.98 µM
TGI (DU-145 prostate): > 100 µM
GI50 (SK-MEL-2 melanoma): 46.2 µM
TGI (SK-MEL-2 melanoma): > 100 µM
GI50 (NCI-H522 lung): 8.4 µM
TGI (NCI-H522 lung): > 100 µM
GI50 (HCC-2998 colon): 14.5 µM
TGI (HCC-2998 colon): > 100 µM
GI50 (HOP-92 NSCLC): 10.7 µM
TGI (HOP-92 NSCLC): > 100 µM
GI50 (RPMI-8226 leukemia): 5.36 µM
TGI (RPMI-8226 leukemia): > 100 µM

COc1cc2ncn(-c3cc(OCc4ccccc4C(F)(F)F)c(C(N)=O)s3)c2cc1OC
GI50 (OVCAR-4 ovarian): > 23.5 µM
TGI (OVCAR-4 ovarian): > 25 µM
GI50 (OVCAR-3 ovarian): 0.0838 µM
TGI (OVCAR-3 ovarian): 0.794 µM
GI50 (DU-145 prostate): 0.0924 µM
TGI (DU-145 prostate): 0.407 µM
GI50 (SK-MEL-2 melanoma): 0.207 µM
TGI (SK-MEL-2 melanoma): 12.3 µM
GI50 (NCI-H522 lung): 0.168 µM
TGI (NCI-H522 lung): 3.67 µM
GI50 (HCC-2998 colon): 0.276 µM
TGI (HCC-2998 colon): > 25 µM
GI50 (HOP-92 NSCLC): 2.2 µM
TGI (HOP-92 NSCLC): 10.5 µM
GI50 (RPMI-8226 leukemia): 0.278 µM
TGI (RPMI-8226 leukemia): > 25 µM

COc1cc2c(c(OC)c1OC)-c1cc(I)c(O)cc1[C@@H](NC(C)=O)CC2
GI50 (OVCAR-4 ovarian): 0.105 µM
TGI (OVCAR-4 ovarian): > 100 µM
GI50 (OVCAR-3 ovarian): 0.0258 µM
TGI (OVCAR-3 ovarian): 0.0623 µM
GI50 (DU-145 prostate): 0.0398 µM
TGI (DU-145 prostate): 0.292 µM
GI50 (SK-MEL-2 melanoma): 23.1 µM
TGI (SK-MEL-2 melanoma): > 100 µM
GI50 (NCI-H522 lung): 0.0484 µM
TGI (NCI-H522 lung): > 100 µM
GI50 (HCC-2998 colon): 0.0655 µM
TGI (HCC-2998 colon): 3 µM
GI50 (HOP-92 NSCLC): 0.0639 µM
TGI (HOP-92 NSCLC): 10.9 µM
GI50 (RPMI-8226 leukemia): 0.035 µM
TGI (RPMI-8226 leukemia): 2.53 µM

CN1C2C=CC(=O)C1C1C(=O)N(c3ccccc3)C(=O)C12 (configuration not stated)
GI50 (OVCAR-4 ovarian): 11.7 µM
TGI (OVCAR-4 ovarian): 38.7 µM
GI50 (OVCAR-3 ovarian): 2.35 µM
TGI (OVCAR-3 ovarian): 6.73 µM
GI50 (DU-145 prostate): 2.34 µM
TGI (DU-145 prostate): 6.69 µM
GI50 (SK-MEL-2 melanoma): 8.12 µM
TGI (SK-MEL-2 melanoma): 42 µM
GI50 (NCI-H522 lung): 14.3 µM
TGI (NCI-H522 lung): 79.9 µM
GI50 (HCC-2998 colon): 13.3 µM
TGI (HCC-2998 colon): 29.3 µM
GI50 (HOP-92 NSCLC): 0.085 µM
TGI (HOP-92 NSCLC): 0.701 µM
